Results published in patent publication US9073858B2, “Methods of targeted drug development” (priority 2010, dated 2015).
Like-named read-outs stand apart in the source and are kept apart here.

How the values were obtained:
[1] = tested on: caspase 3,7 activity in A431 cells; assay: cells; conditions: for Emax at 8 µM / Emax at 16 µM: Homo sapiens, A-431, read-out: Total Apoptosis (increase in caspase 3,7 activity as percentage of the maximal response); for Ability to Synergize with Tarceva: caspase 3,7 activity, A431 cells
Description: As described below, the capsase 3,7 assay uses the Promega Caspase-Glo 3/7 assay kit (cat no. G8092).
The Caspase-Glo® 3/7 Assay is a luminescent assay that measures caspase-3 and −7 activities in purified enzyme preparations or cultures of adherent or suspension cells. The assay provides a proluminescent caspase-3/7 substrate, which contains the tetrapeptide sequence, DEVD. This substrate is cleaved to release aminoluciferin, a substrate of luciferase used in the production of light. The Caspase-Glo® 3/7 Reagent has been optimized for caspase activity, luciferase activity and cell lysis. The addition of the single Caspase-Glo® 3/7 Reagent in an “add-mix-measure” format results in cell lysis, followed by caspase cleavage of the substrate and generation of a “glow-type” luminescent signal. The Caspase-Glo® 3/7 Assay is designed for use with multiwell plate formats, making it ideal for automated high-throughput screening of caspase activity or apoptosis.
Staurosporine was used as a positive control.
For the capsase 3,7 assay, cells were incubated for 5.5 hrs at 37° C., 5% CO2. The plate was removed from the incubator and equilibrated to room temperature. After 30 min, 25 μl Caspase 3/7 detection reagent (Promega Caspase-Glo 3/7 assay kit, cat no. G8092) was added to each well. The plate was covered with tin foil and shaken on a plate shaker at speed 4 for 3 min. The plate was then incubated for an additional 60 min at room temperature. Luminescence was detected using the PolarStar plate reader.
All statistical analyses were done using GraphPad Prism.
The assay was stopped after 6 hrs and the presence of caspase was measured using the Promega Caspase-Glo® 3/7 Assay.

H1975 cells = assay: H1975 Cell Proliferation Assay (MTT); assay type: cell-based; conditions: Homo sapiens, NCI-H1975, 72 h, read-out: IC50 Value (μM) H1975 Cells
Experimental: (§1) Cell proliferation is determined using the MTT assay. The MTT cell proliferation assay is a colorimetric assay system which measures the reduction of a tetrazolium component (MTT) into an insoluble formazan product by the mitochondria of viable cells. After incubation of the cells with the MTT reagent, DMSO is added to solubilize the colored crystals and the samples read at a wavelength of 560 nm. The amount of color produced is directly proportional to the number of viable cells.
(§2) 3-(4,5-Dimethylthiazol-2-yl)-2,5-diphenyltetrazolium Bromide (MTT) dye (Aesar, cat no. L11939) was prepared at 5 mg/ml in PBS. To each well, 20 μl of MTT solution was added to existing media and mixed thoroughly with 5 mins of gentle shaking at room temperature. Plates were incubated at 37° C., 5% CO2 for approximately 2 hrs. After 2-3 hrs incubation, media was aspirated out and plates were patted dry. […] Plates were incubated at 37° C., 5% CO2 for 10 min and mix thoroughly with 5 mins of gentle shaking at room temperature. Plates were read on the PolarStar plate reader at 560 nm. Percent (%) inhibition was calculated as 100%−(OD560 nm experimental-blank)×100%/OD560 nm control-blank. Blank=wells+serum free media+0.5% DMSO. Experimental=wells+cells+treatment+0.5% DMSO. Control=wells+cells+0.5% DMSO. IC50 values were calculated in GraphPad Prism using non-linear regression curve fitting. All statistical analyses was done either in GraphPad Prism or Microsoft Excel.
Briefly, compounds are added to cells plated in 96-well plates. The cells are allowed to grow for 72 hours before MTT treatment. The effect of the compounds on cell proliferation is analyzed using GraphPad Prism.

A549 cells = assay: A549 Cell Proliferation Assay (MTT); assay type: cell-based; conditions: Homo sapiens, A549, 72 h, read-out: IC50 Value (μM) A549 Cells
Experimental: Cell proliferation is determined using the MTT assay. The MTT cell proliferation assay is a colorimetric assay system which measures the reduction of a tetrazolium component (MTT) into an insoluble formazan product by the mitochondria of viable cells. After incubation of the cells with the MTT reagent, DMSO is added to solubilize the colored crystals and the samples read at a wavelength of 560 nm. The amount of color produced is directly proportional to the number of viable cells. […] L11939) was prepared at 5 mg/ml in PBS. […] Plates were read on the PolarStar plate reader at 560 nm. […] IC50 values were calculated in GraphPad Prism using non-linear regression curve fitting. All statistical analyses was done either in GraphPad Prism or Microsoft Excel. […] Briefly, compounds are added to cells plated in 96-well plates. The cells are allowed to grow for 72 hours before MTT treatment. The effect of the compounds on cell proliferation is analyzed using GraphPad Prism. A549 cells are a non-small cell lung cancer cell line that have wild type EGFR and p53 but have point mutations in KRAS gene which transform it into an oncogene. […] SH30071.03, lot no. ATB31500), 1% Pen Strep (Gibco, cat no. […] On day 2, working solutions of compounds at 200× were prepared. […] Plates were incubated for 72 hours before analyzing them with MTT (as described above).

HT-29 cells = assay: HT-29 Cell Proliferation Assay (MTT); assay type: cell-based; conditions: for IC50: Homo sapiens
Experimental: as §1, §2
Briefly, compounds are added to cells plated in 96-well plates. […] The effect of the compounds on cell proliferation is analyzed using GraphPad Prism.
HT-29 cells are a colon cancer cell line that is utilized to assess the ability of compounds to inhibit the proliferation of cells in tumors of the colon.
For the HT-29 cell proliferation assay, on day 1, HT-29 cells are seeded at 3,000 cells/well in 100 μl media containing 10% FBS, 1× Pen-Strep, and 1× L-Glutamine in 96 well, tissue culture-treated plates. […] Working solutions of compounds were prepared (at […] in 100% DMSO). To 200 μl media, 20 μl of a 5× compound (diluted in plain media) was added for a final DMSO concentration of 0.5%. […] On day 5, plates were analyzed for cell growth using the MTT assay.

[2] = tested on: EGF receptor-mediated cell proliferation; assay: Combinatorial studies with known EGFR inhibitors, median effect analysis (MTT assay)
Experimental: Studies were initiated to evaluate the ability of various compounds disclosed herein to synergize with several compounds known to inhibit the function of the EGF receptor in a cell proliferation assay (MTT assay).
The EGFR inhibitor and AD4 compound dilutions were then mixed 1:1 in a 96 well plate. 50 μl of the mix was then added to the cell plate.
A shifting of the inhibitor curve to the left indicates an increase in the effectiveness of the AD4-compound.

[3] = Stability on incubation with mouse liver microsomes (MLM); assay type: in vitro ADME; conditions: percentage left after incubation with mouse liver microsomes for 30 minutes
Method in brief: (§3)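 Values are percent compound remaining after 30 min incubation with mouse or human liver microsomes.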

[4] = tested on: DNA fragmentation in A549 cells; assay: DNA Fragmentation Assay (Cell Death Detection ELISA); assay type: cell-based
annexin V in A549 cells = conditions: for % Total Apoptosis: cells in early- and late-stage apoptosis; for % Relative to Reference Cpd.: reference 4.0 μM camptothecin or 1.0 μM staurosporin
Description: Assays that measure apoptosis are utilized to determine whether or not compounds can induce programmed cell death in cancer cells. Annexin V is a protein that is used to detect apoptosis by binding to phosphatidylserine expressed on membranes of dead or dying cells. Fluorescently tagged with FITC, it can he used in conjunction with 7-aminoactinomycin D to determine the percentage of cells undergoing apoptosis via flow cytometry. Cells in early apoptosis will emit an FITC signal which will eventually be replaced by the far red 7-AAD signal that is associated with cell membrane permeability due to necrosis.
In brief, for the Annexin V Assay, compounds were added to cells plated in 6-well plates. Treated cells were incubated for up to 30 hours before addition of fluorescent cell marker probes that detect the presence of annexin V. The percentage of cells undergoing apoptosis and necrosis were determined by flow cytometry.
On day 2, working solutions of compounds (at 1000×) were prepared. To 2.0 ml media/well was added 2 μl 1000× compound diluted in 100% DMSO for final DMSO concentration of 0.1%. On day 3, plates were incubated for 30 hrs. […] Cells were collected by centrifugation at 300×g for 5 min.
Resuspended cells were stored at 4° C. in the dark, until flow cytometry analysis.
For flow cytometry analysis of the Annexin V Assay, sample acquisition was on the BD LSR II manufactured by BD Biosciences, San Jose, Calif. […] 10,000 events werer collected based on a stopping gate of forward scatter vs side scatter light. Acquisition was done through BD FACS DiVa software version 6.1.1 on high flow rate (60 μL/min). Calculations were as follows: Quadrant 3=lower left=live cells; Quadrant 4=lower right=early apoptosis; Quadrant 2=upper right=late apoptosis; Quadrant 1=upper left=dead cells. Percent (%)Total apoptosis was calculated as early (quadrant 4)+late (quadrant 2). Percent (%) ratio apoptosis was calculated as (experimental-No treatment/positive control)*100. All statistical analyses are done using GraphPad Prism or Microsoft Excel.

[5] = Stability on incubation with human liver microsomes (HLM); assay type: in vitro ADME; conditions: percentage left after incubation with human liver microsomes for 30 minutes
Method in brief: as §3

[6] = HT-29, 72 h, read-out: IC50 Value (μM) HT-29 Cells
[7] = Combination Index with Iressa at 90% inhibition
[8] = Combination Index with Tykerb at 90% inhibition
[9] = Homo sapiens, A549, 24 h, read-out: % Increase over Background
[10] = Homo sapiens, A549, read-out: % Increase Relative to Staurosporin

Row | SMILES | Emax at 8 µM [1] [%] | Emax at 16 µM [1] [%] | Ability to Synergize with Tarceva [1] | IC50 (H1975 cells) [µM] | IC50 (A549 cells) [µM] | MLM % Remaining@ 30 Min [3] [%] | IC50 (HT-29 cells; [6]) [µM] | HLM % Remaining@ 30 Min [5] [%] | other results
1 | Oc1c(C(Nc2ncc(F)cc2F)c2cc(Cl)cc(Cl)c2Cl)ccc2cccnc12 (centres unmarked) [AD4-13181] | 43 | 47 | ++ (0.7-0.85 Moderate synergism) | 0.58 | 0.12 |  |  |  | 
2 | C#Cc1cccc(Nc2ncnc3cc(OCCOC)c(OCCOC)cc23)c1 [Tarceva, reference compound] |  |  |  |  |  |  |  |  | HT-29 Cell Proliferation Assay Results (IC50) (HT-29 cells): No Effect; IC50 (HT-29 cells; HT-29, 72 h, read-out: IC50, Comparison of Incubation Times in HT-29 Cell Proliferation Assay): 15 µM; IC50 (HT-29 cells; HT-29, read-out: IC50 from dose-response curves of FIG. 11, HT-29 cells): 12 µM; synergy with Tykerb [2]: did not produce synergistic effects
3 | Oc1c(C(Nc2cc(Cl)c(Cl)cn2)c2ccc(F)cc2Cl)ccc2cccnc12 (centres unmarked) [AD4-13185] |  |  |  | 0.23 | 0.18 | 57 | 1.2 | 98 | apoptotic activity ([4]; Caspase, DNA Fragmentation, Annexin-V): increased apoptotic activity; apoptosis, share of the cell population (annexin V in A549 cells; 1 μM, A549 cells, FIG. 16B): greater than 50%; % Total Apoptosis (annexin V in A549 cells; 1 μM, A549 cells): 42%; % Relative to Reference Cpd. (annexin V in A549 cells; 1 μM): 161%; late apoptosis, share of the cell population (annexin V in A549 cells; 10 μM, A549 cells, FIG. 16B): up to 20%; % Total Apoptosis (annexin V in A549 cells; 10 μM, A549 cells): 30%; % Relative to Reference Cpd. (annexin V in A549 cells; 10 μM): 202%
4 | Cc1nc(NC(c2cc(Cl)ccc2Cl)c2ccc3cccnc3c2O)c(Cl)cc1Cl (centres unmarked) [AD4-13220] | 32 | 40 | + (0.85-0.9 Slight synergism) |  | 0.12 |  | 3.3 |  | 
5 | CCc1cc(Cl)cnc1NC(c1cccc(Cl)c1Cl)c1ccc2cccnc2c1O (centres unmarked) [AD4-13215] | 20 | 27 | ++ (0.7-0.85 Moderate synergism) |  | 0.16 |  | 0.97 |  | 
6 | Cc1ccnc(NC(c2cc(Cl)cc(Cl)c2Cl)c2ccc3cccnc3c2O)c1 (centres unmarked) [AD4-13072] | 38 | 49 | +++ (0.3-0.7 Synergism) | 0.29 | 0.15 |  |  |  | 
7 | Cc1cc(Cl)cnc1NC(c1cccc(Cl)c1Cl)c1ccc2cccnc2c1O (centres unmarked) [AD4-13147] |  |  |  | 0.29 | 0.11 | 44 | 0.77 | 98 | % Total Apoptosis (annexin V in A549 cells; 1 μM, A549 cells): 29%; % Total Apoptosis (annexin V in A549 cells; 10 μM, A549 cells): 28%
8 | Cc1cccc(NC(c2ccc(C(F)(F)F)cc2)c2ccc3cccnc3c2O)n1 (centres unmarked) [AD4-10628] |  |  |  |  |  | 3 |  | 45 | CI @ ED90 [2, 7]: 0.91; CI @ ED90 [2, 8]: 0.55; synergy with Tykerb ([2]; based on CI value): significant synergy; IC50 ([2]; read-out: IC50 Iressa + Compound (nM)): 93 nM
9 | Cc1c(Cl)cnc(NC(c2ccc(Cl)cc2Cl)c2ccc3cccnc3c2O)c1F (centres unmarked) [AD4-13199] |  |  |  | 0.16 | 0.12 | 63 | 0.75 | 100 | activation at 1 µM [4, 9]: 130%; activation at 10 µM [4, 9]: 492%; Emax at 1 µM [4, 10]: 15%; Emax at 10 µM [4, 10]: 55%
10 | Cc1ccc2c(C)nc(Nc3nc(-c4ccccc4C)cc(=O)[nH]3)nc2c1 [AD4-11511] |  |  |  |  |  | 6 |  | 6 | CI @ ED90 [2, 7]: 0.93; CI @ ED90 [2, 8]: 0.87; shift in Tykerb's dose-response curve ([2]; in combination with Tykerb): leftward shift (i.e., greater potency); IC50 ([2]; read-out: IC50 Iressa + Compound, Iressa combined with the compound at a fixed constant ratio, MTT assay): 245 nM; IC50 ([2]; read-out: IC50 Tykerb + Compound, Tykerb combined with the compound at a fixed constant ratio, MTT assay): 118 nM
